Test results published in ChEMBL document CHEMBL3784933, “Synthesis and antitumor evaluation of trimethoxyanilides based on 4(3H)-quinazolinone scaffolds” (2016).

How the values were obtained:
Type in all cases: functional
[1] = test system: CCRF-CEM; experiment: Cytotoxicity against human CCRF-CEM cells assessed as growth inhibition at 10 uM after 48 hrs by SRB assay; conditions: read-out: GI
[2] = Cytotoxicity against human RPMI8226 cells assessed as growth inhibition at 10 uM after 48 hrs by SRB assay; conditions: RPMI-8226, 48 h, read-out: GI
[3] = test system: SR; experiment: Cytotoxicity against human SR cells assessed as growth inhibition at 10 uM after 48 hrs by SRB assay; conditions: read-out: GI
[4] = test system: A549; experiment: Cytotoxicity against human A549 cells assessed as growth inhibition at 10 uM after 48 hrs by SRB assay; conditions: A549, 48 h, read-out: GI
[5] = Cytotoxicity against human HOP62 cells assessed as growth inhibition at 10 uM after 48 hrs by SRB assay; conditions: HOP-62, 48 h, read-out: GI
[6] = Cytotoxicity against human HOP92 cells assessed as growth inhibition at 10 uM after 48 hrs by SRB assay; conditions: HOP-92, 48 h, read-out: GI
[7] = test system: NCI-H226; experiment: Cytotoxicity against human NCI-H226 cells assessed as growth inhibition at 10 uM after 48 hrs by SRB assay; conditions: NCI-H226, 48 h, read-out: GI
[8] = test system: NCI-H23; experiment: Cytotoxicity against human NCI-H23 cells assessed as growth inhibition at 10 uM after 48 hrs by SRB assay; conditions: NCI-H23, 48 h, read-out: GI
[9] = test system: NCI-H460; experiment: Cytotoxicity against human NCI-H460 cells assessed as growth inhibition at 10 uM after 48 hrs by SRB assay; conditions: NCI-H460, 48 h, read-out: GI
[10] = test system: NCI-H522; experiment: Cytotoxicity against human NCI-H522 cells assessed as growth inhibition at 10 uM after 48 hrs by SRB assay; conditions: NCI-H522, 48 h, read-out: GI
[11] = Cytotoxicity against human HCT116 cells assessed as growth inhibition at 10 uM after 48 hrs by SRB assay; conditions: HCT-116, 48 h, read-out: GI
[12] = Cytotoxicity against human SF268 cells assessed as growth inhibition at 10 uM after 48 hrs by SRB assay; conditions: SF-268, 48 h, read-out: GI
[13] = Cytotoxicity against human SF295 cells assessed as growth inhibition at 10 uM after 48 hrs by SRB assay; conditions: SF-295, 48 h, read-out: GI
[14] = Cytotoxicity against human SF539 cells assessed as growth inhibition at 10 uM after 48 hrs by SRB assay; conditions: SF-539, 48 h, read-out: GI
[15] = Cytotoxicity against human SNB19 cells assessed as growth inhibition at 10 uM after 48 hrs by SRB assay; conditions: SNB-19, 48 h, read-out: GI
[16] = Cytotoxicity against human SNB75 cells assessed as growth inhibition at 10 uM after 48 hrs by SRB assay; conditions: SNB-75, 48 h, read-out: GI
[17] = test system: U-251; experiment: Cytotoxicity against human U251 cells assessed as growth inhibition at 10 uM after 48 hrs by SRB assay; conditions: U-251, 48 h, read-out: GI
[18] = Cytotoxicity against human LOXIMVI cells assessed as growth inhibition at 10 uM after 48 hrs by SRB assay; conditions: LOX IMVI, read-out: GI
[19] = test system: Malme-3M; experiment: Cytotoxicity against human MALME-3M cells assessed as growth inhibition at 10 uM after 48 hrs by SRB assay; conditions: read-out: GI
[20] = test system: SK-MEL-2; experiment: Cytotoxicity against human SK-MEL-2 cells assessed as growth inhibition at 10 uM after 48 hrs by SRB assay; conditions: SK-MEL-2, 48 h, read-out: GI
[21] = test system: SK-MEL-5; experiment: Cytotoxicity against human SK-MEL-5 cells assessed as growth inhibition at 10 uM after 48 hrs by SRB assay; conditions: SK-MEL-5, 48 h, read-out: GI
[22] = Cytotoxicity against human UACC257 cells assessed as growth inhibition at 10 uM after 48 hrs by SRB assay; conditions: UACC-257, 48 h, read-out: GI
[23] = Cytotoxicity against human UACC62 cells assessed as growth inhibition at 10 uM after 48 hrs by SRB assay; conditions: UACC-62, 48 h, read-out: GI
[24] = Cytotoxicity against human IGROV1 cells assessed as growth inhibition at 10 uM after 48 hrs by SRB assay; conditions: IGROV-1, 48 h, read-out: GI
[25] = Cytotoxicity against human OVCAR3 cells assessed as growth inhibition at 10 uM after 48 hrs by SRB assay; conditions: OVCAR-3, 48 h, read-out: GI
[26] = Cytotoxicity against human OVCAR4 cells assessed as growth inhibition at 10 uM after 48 hrs by SRB assay; conditions: OVCAR-4, 48 h, read-out: GI
[27] = Cytotoxicity against human OVCAR8 cells assessed as growth inhibition at 10 uM after 48 hrs by SRB assay; conditions: OVCAR-8, 48 h, read-out: GI
[28] = Cytotoxicity against human NCI-ADR-RES cells assessed as growth inhibition at 10 uM after 48 hrs by SRB assay; conditions: read-out: GI
[29] = Cytotoxicity against human SKOV3 cells assessed as growth inhibition at 10 uM after 48 hrs by SRB assay; conditions: SK-OV-3, 48 h, read-out: GI
[30] = test system: A498; experiment: Cytotoxicity against human A498 cells assessed as growth inhibition at 10 uM after 48 hrs by SRB assay; conditions: A498, 48 h, read-out: GI
[31] = test system: ACHN; experiment: Cytotoxicity against human ACHN cells assessed as growth inhibition at 10 uM after 48 hrs by SRB assay; conditions: read-out: GI
[32] = Cytotoxicity against human Caki1 cells assessed as growth inhibition at 10 uM after 48 hrs by SRB assay; conditions: CAKI-1, 48 h, read-out: GI
[33] = Cytotoxicity against human RXF393 cells assessed as growth inhibition at 10 uM after 48 hrs by SRB assay; conditions: RXF 393, 48 h, read-out: GI
[34] = test system: SN12C; experiment: Cytotoxicity against human SN12C cells assessed as growth inhibition at 10 uM after 48 hrs by SRB assay; conditions: read-out: GI
[35] = Cytotoxicity against human UO31 cells assessed as growth inhibition at 10 uM after 48 hrs by SRB assay; conditions: UO-31, 48 h, read-out: GI
[36] = Cytotoxicity against human PC3 cells assessed as growth inhibition at 10 uM after 48 hrs by SRB assay; conditions: PC-3, 48 h, read-out: GI
[37] = Cytotoxicity against human DU145 cells assessed as growth inhibition at 10 uM after 48 hrs by SRB assay; conditions: DU-145, 48 h, read-out: GI
[38] = test system: MCF7; experiment: Cytotoxicity against human MCF7 cells assessed as growth inhibition at 10 uM after 48 hrs by SRB assay; conditions: MCF7, 48 h, read-out: GI
[39] = test system: MDA-MB-231; experiment: Cytotoxicity against human MDA-MB-231 cells assessed as growth inhibition at 10 uM after 48 hrs by SRB assay; conditions: MDA-MB-231, 48 h, read-out: GI
[40] = Cytotoxicity against human BT549 cells assessed as growth inhibition at 10 uM after 48 hrs by SRB assay; conditions: BT-549, 48 h, read-out: GI
[41] = test system: T47D; experiment: Cytotoxicity against human T47D cells assessed as growth inhibition at 10 uM after 48 hrs by SRB assay; conditions: read-out: GI
[42] = test system: MDA-MB-468; experiment: Cytotoxicity against human MDA-MB-468 cells assessed as growth inhibition at 10 uM after 48 hrs by SRB assay; conditions: MDA-MB-468, 48 h, read-out: GI
[43] = Cytotoxicity against human NCI-H322 cells assessed as growth inhibition at 10 uM after 48 hrs by SRB assay; conditions: NCI-H322, 48 h, read-out: GI

## COc1cc(NC(=O)CCSc2nc3ccccc3c(=O)n2-c2ccc(F)cc2)cc(OC)c1OC
[1]
  inhibition of growth at 10 µM: 67%
[2]
  inhibition of growth at 10 µM: 17%
[3]
  inhibition of growth at 10 µM: 11%
[4]
  inhibition of growth at 10 µM: 28%
[5]
  inhibition of growth at 10 µM: 40%
[6]
  inhibition of growth at 10 µM: 103%
[7]
  inhibition of growth at 10 µM: 38%
[8]
  inhibition of growth at 10 µM: 21%
[9]
  inhibition of growth at 10 µM: 18%
[10]
  inhibition of growth at 10 µM: 68%
[11]
  inhibition of growth at 10 µM: 30%
[12]
  inhibition of growth at 10 µM: 34%
[13]
  inhibition of growth at 10 µM: 40%
[14]
  inhibition of growth at 10 µM: 34%
[15]
  inhibition of growth at 10 µM: 32%
[16]
  inhibition of growth at 10 µM: 117%
[17]
  inhibition of growth at 10 µM: 42%
[18]
  inhibition of growth at 10 µM: 12%
[19]
  inhibition of growth at 10 µM: 40%
[20]
  inhibition of growth at 10 µM: 47%
[21]
  inhibition of growth at 10 µM: 11%
[22]
  inhibition of growth at 10 µM: 15%
[23]
  inhibition of growth at 10 µM: 32%
[24]
  inhibition of growth at 10 µM: 25%
[25]
  inhibition of growth at 10 µM: 18%
[26]
  inhibition of growth at 10 µM: 104%
[27]
  inhibition of growth at 10 µM: 61%
[28]
  inhibition of growth at 10 µM: 28%
[29]
  inhibition of growth at 10 µM: 70%
[30]
  inhibition of growth at 10 µM: 22%
[31]
  inhibition of growth at 10 µM: 39%
[32]
  inhibition of growth at 10 µM: 22%
[33]
  inhibition of growth at 10 µM: 40%
[34]
  inhibition of growth at 10 µM: 20%
[35]
  inhibition of growth at 10 µM: 23%
[36]
  inhibition of growth at 10 µM: 25%
[37]
  inhibition of growth at 10 µM: 21%
[38]
  inhibition of growth at 10 µM: 22%
[39]
  inhibition of growth at 10 µM: 47%
[40]
  inhibition of growth at 10 µM: 28%
[41]
  inhibition of growth at 10 µM: 39%
[42]
  inhibition of growth at 10 µM: 21%
[43]
  inhibition of growth at 10 µM: 14%
